Laboratory results reported in patent publication US4906661A, “Esters of aryloxypropanolamine derivatives” (E. I. Du Pont de Nemours and Company, priority 1989, dated 1990).
Several values for one entry are separate records, joined by “and”; a condition that tells them apart may be missing. Identical values can stand only once. Counter-ions that a name gives are not always drawn. Like-named read-outs stand apart in the source and are kept apart here.

Legend:
[1] = target: β1 receptors, guinea pig right atria (Cavia porcellus, UniProt H0W3H1); test: cell-based
Sequence of β1 receptors, guinea pig right atria (H0W3H1 1-470): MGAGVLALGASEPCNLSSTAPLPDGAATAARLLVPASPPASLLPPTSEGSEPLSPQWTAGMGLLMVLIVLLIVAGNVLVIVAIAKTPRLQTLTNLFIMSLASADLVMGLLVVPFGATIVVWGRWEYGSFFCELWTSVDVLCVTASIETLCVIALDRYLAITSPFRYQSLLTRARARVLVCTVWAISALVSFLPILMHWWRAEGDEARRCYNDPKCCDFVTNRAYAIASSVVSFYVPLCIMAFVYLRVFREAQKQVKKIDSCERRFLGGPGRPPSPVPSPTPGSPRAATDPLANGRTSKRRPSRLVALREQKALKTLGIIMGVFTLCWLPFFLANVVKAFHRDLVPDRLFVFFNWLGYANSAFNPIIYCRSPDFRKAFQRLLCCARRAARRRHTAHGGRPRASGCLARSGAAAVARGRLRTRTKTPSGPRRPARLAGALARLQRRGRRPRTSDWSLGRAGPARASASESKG
Experimental: Each tissue was suspended between a fixed glass rod and a Statham Universal Transducer connected to a Beckman recorder. Atria were allowed to beat spontaneously under a loading tension of approximately 0.5 gm. Intrinsic depressant or stimulant activity was determined for each compound by progressively increasing concentrations in the tissue baths at 60-minute intervals. Tissues were not washed between increments. The maximum concentration showing little or no cardiodepressant activity was chosen for blockade experiments. Changes in rate in response to isoproterenol, a standard β-receptor agonist, were measured in the absence and presence of test compounds. Spiral strips of guinea pig trachea were suspended under 5 gm resting tension and incubated with phentolamine, tropolone and cocaine. Active tension was generated by addition of carbachol (3.0×10^-7 M) and decreases in tension in response to isoproterenol were quantitated. Cumulative concentration-response curves were produced with isoproterenol both before and after 60-minute incubation of test compounds with atria and trachea. […] The blocking potency of test compounds was estimated by computing pA2 values (-log KB) by the method of Furchgott, the Pharmacological Differentiation of Adrenergic Receptors, Ann. […] The degree of cardioselectivity was estimated from the ratio, KB trachea/KB atria (10^(pA2 atria-pA2 trachea)). A ratio greater than one indicates cardioselectivity. Test drugs were dissolved in distilled water and added to the bath (30 ml) in a volume of 10 or 100 μl.

[2] = system: heart rate response to isoproterenol; test: Duration and potency of beta-blocking action in vivo, 3-hour infusion in anesthetized dogs, isoproterenol challenge; parameters: species or system dog; settings: for Duration, time for 50% recovery from 50% blockade levels: Table IV, after infusion of drug, mean ± SEM; for Recovery Time 50%: 50% recovery from β-blockade after termination of infusion; for Recovery Time 80%: 80% recovery from β-blockade after termination of infusion; for % I, percent inhibition of heart rate response to isoproterenol: end of 3-hour infusion, isoproterenol 0.5 μg/kg
Experimental: The duration of β-blockade was determined In vivo using pentobarbital-anesthetized dogs instrumented for measurement of heart rate using a Beckman cardiotachometer triggered electronically by a phasic aortic blood pressure signal. Both vagus nerves were served in the cervical region and the animals were mechanically ventilated. The experimental design used employed a 3-hour infusion of test compound. Bolus doses of isoproterenol (0.5 μg/kg) were used to assess the degree of β-blockade and recovery from β-blockade after […] of the infusion. The doses were spaced at 10-minute intervals and were given before, during and following the infusion of test compounds. The infusion rate was adjusted so that at the end of the 3-hour infusion period the degree of isoproterenol inhibition averaged about 50% of control. Following termination of blocker infusion, percent recovery from β-blockade was computed and the time associated with 80% recovery estimated.
^c Time in minutes for 50% recovery from 50% blockade levels after 3
Infusions of drug. Number of experiments is equal to or greater than thre
for each compound unless noted otherwise. Tabulated data are mean values
^c The betablocking activities were evaluated Invivo in a canine
model. The betablocker was infused in the animal for 3 hours with the dos
adjusted to give approximately 50%. blockage of the Isoproternolinduced
tachycardia. The infusion was then terminated and the time required for
80% recovery of blockade was recorded as duration of action of the
compound. The amount of drug infused during the 3 hours was averaged and
expressed as potency in ug/kg/min.

[3] = target: β2 receptors, guinea pig trachea (Cavia porcellus, UniProt Q8K4Z4); test: cell-based
Sequence of β2 receptors, guinea pig trachea (Q8K4Z4 whole entry): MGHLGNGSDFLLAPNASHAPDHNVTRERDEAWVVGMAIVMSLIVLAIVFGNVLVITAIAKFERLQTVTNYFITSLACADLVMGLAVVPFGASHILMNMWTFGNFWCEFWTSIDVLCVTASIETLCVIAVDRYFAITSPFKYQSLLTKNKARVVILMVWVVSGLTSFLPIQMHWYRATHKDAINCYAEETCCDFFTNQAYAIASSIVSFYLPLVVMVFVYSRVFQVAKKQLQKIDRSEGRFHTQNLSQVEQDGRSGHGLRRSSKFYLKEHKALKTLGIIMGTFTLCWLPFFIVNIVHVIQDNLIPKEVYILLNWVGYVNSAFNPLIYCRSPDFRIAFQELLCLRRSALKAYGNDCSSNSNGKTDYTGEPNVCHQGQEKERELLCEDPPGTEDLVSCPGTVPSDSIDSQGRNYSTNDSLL
Experimental: Each tissue was suspended between a fixed glass rod and a Statham Universal Transducer connected to a Beckman recorder. Atria were allowed to beat spontaneously under a loading tension of approximately 0.5 gm. Intrinsic depressant or stimulant activity was determined for each compound by progressively increasing concentrations in the tissue baths at 60-minute intervals. Tissues were not washed between increments. […] Changes in rate in response to isoproterenol, a standard β-receptor agonist, were measured in the absence and presence of test compounds. Spiral strips of guinea pig trachea were suspended under 5 gm resting tension and incubated with phentolamine, tropolone and cocaine. Active tension was generated by addition of carbachol (3.0×10^-7 M) and decreases in tension in response to isoproterenol were quantitated. Cumulative concentration-response curves were produced with isoproterenol both before and after 60-minute incubation of test compounds with atria and trachea. […] The blocking potency of test compounds was estimated by computing pA2 values (-log KB) by the method of Furchgott, the Pharmacological Differentiation of Adrenergic Receptors, Ann. […] A ratio greater than one indicates cardioselectivity. Test drugs were dissolved in distilled water and added to the bath (30 ml) in a volume of 10 or 100 μl.

[4] = system: β-adrenergic receptors, guinea pig trachea vs right atria; test: Cardioselectivity, KB trachea/KB atria; format: cell-based; settings: 10^(pA2 atria-pA2 trachea); ratio greater than one indicates cardioselectivity
Experimental: Each tissue was suspended between a fixed glass rod and a Statham Universal Transducer connected to a Beckman recorder. Atria were allowed to beat spontaneously under a loading tension of approximately 0.5 gm. Intrinsic depressant or stimulant activity was determined for each compound by progressively increasing concentrations in the tissue baths at 60-minute intervals. Tissues were not washed between increments. The maximum concentration showing little or no cardiodepressant activity was chosen for blockade experiments. Changes in rate in response to isoproterenol, a standard β-receptor agonist, were measured in the absence and presence of test compounds. Spiral strips of guinea pig trachea were suspended under 5 gm resting tension and incubated with phentolamine, tropolone and cocaine. Active tension was generated by addition of carbachol (3.0×10^-7 M) and decreases in tension in response to isoproterenol were quantitated. Cumulative concentration-response curves were produced with isoproterenol both before and after 60-minute incubation of test compounds with atria and trachea. […] The degree of cardioselectivity was estimated from the ratio, KB trachea/KB atria (10^(pA2 atria-pA2 trachea)). A ratio greater than one indicates cardioselectivity. Test drugs were dissolved in distilled water and added to the bath (30 ml) in a volume of 10 or 100 μl.

[5] = Half-life in dog whole blood (procedure D); format: in vitro ADME; settings: 37° C., read-out: T1/2 dog blood
Experimental: (§1) In each experiment, 1 ml of a solution containing 50 μg of the test compound was added to 1 ml of whole blood or 1 ml of a 33% (w/v) liver homogenate. The samples were incubated in a Dubnoff shaking metabolic incubator for 2.5, 5.0, 10.0, 20.0, 30.0 and 60.0 minutes at 37° C. At the designated time periods, the test mixtures were removed from the incubator and transferred to a 0° C. ice bath. Acetonitrile (2 ml) was immediately added and the mixtures were mixed to stop enzymatic hydrolysis. Zero time samples were prepared by adding 2 ml of acetonitrile to denature the proteins prior to addition of the test compounds. After centrifugation to sediment denatured proteins, 2 ml of the supernatant was removed and analyzed by high pressure liquid chromatography, using a mobile phase of 60% acetonitrile/40% 0.05 M sodium phosphate buffer (pH 6.6), a U.V. detector and Waters μ Bondapak Phenyl column.
(§2) The half life of each test compound was determined graphically by plotting the decrease in concentrations as a function of time.

[6] = Half-life in dog liver homogenate (procedure D); format: in vitro ADME; settings: 37° C., read-out: T1/2 dog liver homogenate
Experimental: as §1, §2

[7] = topical (eye), Physicians' Desk Reference 1981; cited from earlier work
[8] = Table VI, read-out: pA2 Atria (converted)
[9] = Table IV, mean, n ≥ 2, range ≤ ± 0.2 units, read-out: pA2 Atria (converted)
[10] = Table IV, mean, n ≥ 2, range ≤ ± 0.2 units, read-out: pA2 Trachea (converted)
[11] = Table I, guinea pig right atria, vs isoproterenol, -log KB, read-out: PA2 Rt. Atria (converted)
[12] = Table I, guinea pig trachea, vs isoproterenol, -log KB, read-out: PA2 Trachea (converted)
[13] = Table IV, mean, n ≥ 2, range ≤ ± 0.2 units
[14] = Table V, guinea pig right atria (B1), read-out: In Vitro pA2 Atria (converted)

Compound: CCOC(=O)CCc1nsnc1OCC(O)CNC(C)(C)CNC(N)=O (stereo not shown) [No. 2 (Table VI)]
- Kb [1, 8]: 39.8 nM

Compound: CCOC(=O)CCc1ccc(OCC(O)CNCCNC(=O)Cc2ccccc2)cc1 (stereo not shown) [No. 12 (Table IV)]
- Duration, time for 50% recovery from 50% blockade levels [2]: 6 ± 4 min
- Kb [1, 9]: 31.6 nM
- Kb [3, 10]: 1260 nM

Compound: CCOC(=O)CCc1nsnc1OCC(O)CNCCNC(=O)Cc1ccccc1 (stereo not shown) [No. 6 (Table VI)]
- Kb [1, 8]: 79.4 nM

Compound: CCOC(=O)c1ccccc1OCC(O)CNCCNS(=O)(=O)N(C)C (stereo not shown) [Example 4]
- Kb [1, 9]: 39.8 nM
- Kb [3, 10]: 20 nM

Compound: COC(=O)c1ccccc1OCC(O)CNC(C)(C)CNC(=O)N1CCOCC1 (stereo not shown) [Example VI, Methyl 2-[2-Hydroxy-3-[N-[1,1-dimethyl-2-(1-morpholinocarbonylamino)ethyl]amino]propoxy]benzoate Oxalate]
- Recovery Time 50% ([2]; Table II): > 60 min
- Recovery Time 80% ([2]; Table II): > 60 min
- % I, percent inhibition of heart rate response to isoproterenol ([2]; Table II): 93% and 89%
- Kb [1, 11]: < 1 nM

Compound: COC(=O)c1ccccc1OCC(O)CNCCNS(=O)(=O)c1ccc(C)cc1.O=C(O)C(=O)O (stereo not shown) [Example VII, Methyl 2-[2-Hydroxy-3-[N-[2-[N-(4-methylphenylsulfonyl)amino]ethyl]amino]propoxy]benzoate Oxalate]
- Cardioselectivity KB (Trachea)/KB (Atria) [4]: 2
- Kb [1, 11]: 158 nM
- Kb [3, 12]: 79.4 nM

Compound: CCOC(=O)c1ccccc1OCC(O)CNCCNS(=O)(=O)c1ccc(C)cc1 (stereo not shown) [Example 5]
- Kb [1, 9]: 158 nM
- Kb [3, 10]: 25.1 nM

Compound: CCOC(=O)NCC(C)(C)NCC(O)COc1ccccc1C(=O)OCC (stereo not shown) [Example 2]
- Kb [1, 9]: 5.01 nM
- Kb [3, 10]: 10 nM

Compound: COC(=O)c1ccccc1OCC(O)CNCCNC(=O)Nc1ccccc1 (stereo not shown) [Example IV, Methyl 2-[2-Hydroxy-3-[N-[2-[N-(phenylaminocarbonyl)amino]ethyl]amino]propoxy]benzoate]
- Recovery Time 50% ([2]; Table II): > 60 min
- Recovery Time 80% ([2]; Table II): > 60 min
- % I, percent inhibition of heart rate response to isoproterenol ([2]; Table II): 72 ± 3%
- half-life [5]: > 3 h
- Cardioselectivity KB (Trachea)/KB (Atria) [4]: 25
- Kb [1, 11]: 7.94 nM
- Kb [3, 12]: 200 nM
- half-life [6]: > 3 h

Compound: CCOC(=O)CCc1ccc(OCC(O)CNC(C)(C)CNC(=O)N2CCOCC2)cc1 (stereo not shown) [No. 19 (Table IV)]
- Duration, time for 50% recovery from 50% blockade levels [2]: 21 ± 4 min
- Kb [1, 9]: 15.8 nM
- Kb [3, 10]: 200 nM

Compound: CCOC(=O)CCc1ccc(OCC(O)CNCCNS(=O)(=O)N(C)C)cc1 (stereo not shown) [No. 16 (Table IV)]
- pA2 Atria [1, 13]: 5.8
- pA2 Trachea [3, 13]: 5.7

Compound: CCOC(=O)CCc1ccc(OCC(O)CNC(C)(C)CNC(=O)OCC)cc1 (stereo not shown) [No. 14 (Table IV)]
- Kb [1, 9]: 794 nM
- Kb [3, 10]: 200 nM

Compound: COC(=O)c1ccccc1OCC(O)CNC(C)(C)CNS(=O)(=O)c1ccccc1 (stereo not shown) [VIII, Methyl 2-[2-Hydroxy-3-[N-[1,1-dimethyl-2-(phenylsulfonylamino)ethyl]amino]proxy]benzoate Oxalate]
- Recovery Time 50% ([2]; Table II): 26 ± 6 min
- Recovery Time 80% ([2]; Table II): > 60 min
- % I, percent inhibition of heart rate response to isoproterenol ([2]; Table II): 74%
- Kb [3, 12]: 1.58 nM

Compound: CCOC(=O)CCc1ccc(OCC(O)CNC(C)(C)CNC(N)=O)cc1 (stereo not shown) [No. 13 (Table IV)]
- Duration, time for 50% recovery from 50% blockade levels [2]: 12 ± 4 min
- Kb [1, 9]: 1000 nM
- Kb [3, 10]: 398 nM

Compound: CC(C)(C)NC[C@H](O)COc1nsnc1N1CCOCC1 [timolol maleate]
- adverse reactions to the topical use [7]: bronchospasm and heart failure, as well as cardiac conduction defects

Compound: CC(C)(C)NC[C@H](O)COc1nsnc1N1CCOCC1 [Timolol, reference compound]
- Duration, time for 50% recovery from 50% blockade levels [2]: > 60 min

Compound: CCOC(=O)CCc1nsnc1OCC(O)CNCCNC(=O)C(C)C (stereo not shown) [No. 1 (Table V)]
- Kb [1, 14]: 100 nM

Compound: CCOC(=O)c1ccccc1OCC(O)CNCCNC(=O)C(C)C (stereo not shown) [Example 1]
- Kb [1, 9]: 3.16 nM
- Kb [3, 10]: 20 nM

Compound: CCOC(=O)CCc1ccccc1OCC(O)CNCCNC(=O)C(C)C (stereo not shown) [Example 6]
- Kb [1, 9]: 63.1 nM
- Kb [3, 10]: 20 nM

Compound: CCOC(=O)CCc1nsnc1OCC(O)CNCCNC(C)=O (stereo not shown) [No. 3 (Table VI)]
- Kb [1, 8]: 501 nM

Compound: CCOC(=O)CCc1ccc(OCC(O)CNC(C)(C)CNS(=O)(=O)N(C)C)cc1 (stereo not shown) [No. 15 (Table IV)]
- pA2 Atria [1, 13]: 5.8
- Kb [1, 9]: 1580 nM
- pA2 Trachea [3, 13]: 6.5
- Kb [3, 10]: 316 nM

Compound: CCOC(=O)CCc1ccc(OCC(O)CNCCNC(C)=O)cc1 (stereo not shown) [No. 9 (Table IV)]
- Duration, time for 50% recovery from 50% blockade levels [2]: 10 ± 4 min
- Kb [1, 9]: 501 nM
- Kb [3, 10]: 316 nM

Compound: CCOC(=O)CCc1nsnc1OCC(O)CNC(C)(C)CNC(=O)OCC (stereo not shown) [No. 1 (Table VI)]
- Kb [1, 8]: 63.1 nM

Compound: CCOC(=O)CCc1ccc(OCC(O)CNC(C)(C)CNS(=O)(=O)c2ccccc2)cc1 (stereo not shown) [No. 18 (Table IV)]
- Kb [1, 9]: 501 nM
- Kb [3, 10]: 251 nM

Compound: CCOC(=O)CCc1nsnc1OCC(O)CNCCNS(=O)(=O)N1CCOCC1 (stereo not shown) [No. 7 (Table VI)]
- Kb [1, 8]: 794 nM

Compound: CCOC(=O)CCc1ccc(OCC(O)CNCCNC(=O)C(C)C)cc1 (stereo not shown) [No. 10 (Table IV)]
- Duration, time for 50% recovery from 50% blockade levels [2]: 6 ± 3 min
- Kb [1, 9]: 794 nM
- Kb [3, 10]: 398 nM

Compound: CCOC(=O)CCc1ccc(OCC(O)CNC(C)(C)CNC(=O)C2CCCCC2)cc1 (stereo not shown) [No. 11 (Table IV)]
- Kb [3, 10]: 398 nM

Compound: CC(C)NCC(O)COc1cccc2ccccc12 (stereo not shown) [Propranolol, reference compound]
- Potency ([2]; Table II, 3-hour infusion, dog): 0.225 mg/kg/180 min
- Recovery Time 50% ([2]; Table II): > 60 min
- Recovery Time 80% ([2]; Table II): > 60 min
- % I, percent inhibition of heart rate response to isoproterenol ([2]; Table II): 67 ± 6%
- Duration, time for 50% recovery from 50% blockade levels [2]: > 60 min

Compound: CCOC(=O)CCc1nsnc1OCC(O)CNC(C)(C)CNC(C)=O (stereo not shown) [No. 5 (Table VI)]
- Kb [1, 8]: 79.4 nM

Compound: CCOC(=O)CCc1nsnc1OCC(O)CNC(C)(C)CNC(=O)C(C)C (stereo not shown) [No. 2 (Table V)]
- Kb [1, 14]: 6.31 nM

Compound: CCOC(=O)CCc1ccc(OCC(O)CNCCNS(=O)(=O)c2ccc(C)cc2)cc1 (stereo not shown) [No. 17 (Table IV)]
- Kb [1, 9]: 1000 nM
- Kb [3, 10]: 6310 nM

Compound: CCOC(=O)CCc1nsnc1OCC(O)CNC(C)CNC(C)=O (stereo not shown) [No. 4 (Table VI)]
- Kb [1, 8]: 100 nM
